Results taken from patent US20180353483A1, “PHARMACEUTICAL COMPOSITIONS AND METHODS FOR INDOLEAMINE, 2, 3-DIOXYGENASE INHIBITION AND INDICATIONS THEREFOR” (Incyte Corporation, priority 2015, published 2018).
Entries after “also recorded” stand apart in the source; their conditions may differ. Read-outs that look alike come from different tables or passages of the source.

How the values were obtained:
[1] = Dose-escalation study of Compound 1 pharmacokinetics in subjects with advanced malignancies (tablets of Formulations 1 and/or 3, fasted; food effect cohort); assay type: in vivo, human; details: for AUC: read-out: AUC0-τ
Description: Thus, Cmax, Cmin and Tmax were taken directly from the observed plasma concentration data or imputed in some cases. The terminal-phase disposition rate constant (λz) was estimated using a log-linear regression of the concentration data in the terminal disposition phase, and t1/2 was estimated as ln(2)/λz. AUC0-t and AUC0-τ was estimated using the linear trapezoidal rule for increasing concentrations and the log-trapezoidal rule for decreasing concentrations. At the PK steady-state, the apparent oral-dose clearance, CL/F, was estimated as Dose/AUC0-τ, and Vz/F was estimated as Dose/[AUC0-τ*λz].
The log-transformed pharmacokinetic parameters were compared among the BID dose groups using a 1-factor ANOVA with the factor for dose. Dose-dependent exposure parameters (Cmax and AUC) were normalized to a common dose before statistical comparisons were made.
The oral bioavailability (F) and systemic clearance (CL) were estimated. […] This method of estimation assumes near complete oral absorption and the liver being the primary organ for drug clearance. […] The above equation was modified to incorporate the term of Fa to accommodate an incomplete absorption: CL=(QH*Fa*CL/F)/(QH+Fa*CL/F).

[2] = Unbound fraction in plasma; assay type: in vitro ADME
[3] = 50 mg BID, steady state, geometric mean
[4] = 50 mg BID, steady state, mean ± SD
[5] = 50 mg QD, steady state, mean ± SD
[6] = 100 mg BID, steady state, geometric mean
[7] = 100 mg BID, steady state, mean ± SD
[8] = 300 mg BID, steady state, geometric mean
[9] = 300 mg BID, steady state, mean ± SD
[10] = 400 mg BID, steady state, geometric mean
[11] = 400 mg BID, steady state, mean ± SD
[12] = 500 mg BID, steady state, geometric mean
[13] = 500 mg BID, steady state, mean ± SD
[14] = 600 mg BID, steady state, geometric mean
[15] = 600 mg BID, steady state, mean ± SD
[16] = 700 mg BID, steady state, geometric mean
[17] = 700 mg BID, steady state, mean ± SD
[18] = BID doses 50 to 700 mg, steady state
[19] = human, plasma, oral, 50 mg, 50 mg QD, steady state, geometric mean
[20] = human, plasma, oral, 100 mg, 100 mg BID, steady state, geometric mean
[21] = human, plasma, oral, 300 mg, 300 mg BID, steady state, geometric mean
[22] = human, plasma, oral, 400 mg, 400 mg BID, steady state, geometric mean
[23] = human, plasma, oral, 500 mg, 500 mg BID, steady state, geometric mean
[24] = human, plasma, oral, 600 mg, 600 mg BID, steady state, geometric mean
[25] = human, plasma, oral, 700 mg, 700 mg BID, steady state, geometric mean

NS(=O)(=O)NCCNc1nonc1C(=NO)Nc1ccc(F)c(Br)c1 [Compound 1, 4-({2-[(aminosulfonyl)amino]ethyl}amino)-N-(3-bromo-4-fluorophenyl)-N′-hydroxy-1,2,5-oxadiazole-3-carboximidamide]
CL/F [1, 3]: 40.3 L/h
Cmax [1, 3]: 715 nM
AUC0-τ [1, 4]: 3.05 ± 1.36 µM·h
CL/F [1, 4]: 43.3 ± 19.2 L/h
Cmax [1, 4]: 742 ± 212 nM
Cmin [1, 4]: 84 ± 63 nM
t1/2 [1, 4]: 2.4 ± 0.56 h
tmax ([1]; 50 mg BID, steady state, median): 2.0 h
trough concentrations ([1]; 50 mg QD): low and generally not quantifiable
CL/F ([1]; 50 mg QD, steady state, geometric mean): 73.0 L/h
AUC(0-t) [1, 5]: 1.39 ± 0.256 µM·h
CL/F [1, 5]: 73.8 ± 14.7 L/h
Cmin [1, 5]: 0 ± 0 nM
t1/2 [1, 5]: 2.4 ± 0.26 h
tmax ([1]; 50 mg QD, steady state, median): 2.0 h
CL/F [1, 6]: 42.4 L/h
Cmin [1, 6]: 171 nM
AUC0-τ [1, 7]: 5.77 ± 2.34 µM·h
CL/F [1, 7]: 45.8 ± 20.9 L/h
Cmax [1, 7]: 1230 ± 348 nM
Cmin [1, 7]: 201 ± 111 nM
t1/2 [1, 7]: 3.3 ± 0.75 h
tmax ([1]; 100 mg BID, steady state, median): 2.0 h
CL/F [1, 8]: 70.2 L/h
Cmin [1, 8]: 251 nM
t1/2 [1, 8]: 3.5 h
AUC0-τ [1, 9]: 9.78 ± 0.86 µM·h
CL/F [1, 9]: 70.4 ± 6.19 L/h
Cmax [1, 9]: 2480 ± 515 nM
Cmin [1, 9]: 287 ± 146 nM
t1/2 [1, 9]: 3.9 ± 2.1 h
tmax ([1]; 300 mg BID, steady state, median): 2.0 h
CL/F [1, 10]: 51.8 L/h
Cmin [1, 10]: 523 nM
AUC0-τ [1, 11]: 19.6 ± 7.43 µM·h
CL/F [1, 11]: 62.3 ± 52.3 L/h
Cmax [1, 11]: 4390 ± 2020 nM
Cmin [1, 11]: 624 ± 339 nM
t1/2 [1, 11]: 2.7 ± 0.62 h
tmax ([1]; 400 mg BID, steady state, median): 2.0 h
CL/F [1, 12]: 58.0 L/h
Cmin [1, 12]: 562 nM
AUC0-τ [1, 13]: 20.6 ± 6.82 µM·h
CL/F [1, 13]: 60.5 ± 19.1 L/h
Cmin [1, 13]: 604 ± 260 nM
t1/2 [1, 13]: 2.4 ± 0.37 h
tmax ([1]; 500 mg BID, steady state, median): 2.0 h
effect of a high-fat meal on plasma exposures ([1]; 600 mg BID, 1-way crossover ANOVA): not statistically significant
tmax ([1]; 600 mg BID, food effect cohort, Fasted, median): 2.0 h
decrease of geometric mean Cmax by a high-fat meal ([1]; 600 mg BID, steady state): approximately 10%
increase of geometric mean AUC0-12h by a high-fat meal ([1]; 600 mg BID, steady state): 22%
CL/F [1, 14]: 63.5 L/h
Cmin [1, 14]: 731 nM
CL/F [1, 15]: 66.4 ± 18.6 L/h
Cmin [1, 15]: 932 ± 704 nM
t1/2 [1, 15]: 3.3 ± 0.97 h
tmax ([1]; 600 mg BID, steady state, median): 2.0 h
highest steady-state mean unbound daily AUC0-24h (=2×AUC0-12h) ([1]; 700 mg BID): 2.2 µM·h
CL/F [1, 16]: 47.2 L/h
Cmin [1, 16]: 1260 nM
AUC0-τ [1, 17]: 35.8 ± 15.5 µM·h
CL/F [1, 17]: 49.5 ± 17.1 L/h
Cmax [1, 17]: 6230 ± 2090 nM
Cmin [1, 17]: 1320 ± 417 nM
dose proportionality of exposures (Cmax and AUC) ([1]; 50 to 700 mg BID): slightly less than proportional to dose; also recorded: less than proportional to dose
exponent β of power-function regression, AUC0-12h vs Dose [1, 18]: 0.843
exponent β of power-function regression, Cmax vs Dose [1, 18]: 0.779
increase of mean AUC0-τ by systemic accumulation ([1]; BID dosing): 33%
increase of mean Cmax by systemic accumulation ([1]; BID dosing): 16%
oral-dose clearance CL/F ([1]; geometric mean, pooled 42 subjects, Cycle 1 Day 15): 55.3 L/h
systemic clearance in percent hepatic blood flow ([1]; human, estimated): 29%
fraction of oral dose absorbed (Fa) ([1]; human, estimated as mean of cynomolgus monkey and beagle dog): 64%
AUC(0-t) ([1]; human, plasma, oral, 50 mg, 50 mg BID, steady state, geometric mean, read-out: AUC0-t): 2.58 µM·h
AUC ([1]; human, plasma, oral, 50 mg, 50 mg BID, steady state, geometric mean): 2.83 µM·h
half-life ([1]; human, plasma, oral, 50 mg, 50 mg BID, steady state, geometric mean, read-out: t1/2 (converted)): 2.3 h
AUC(0-t) ([1]; human, plasma, oral, 50 mg, 50 mg BID, steady state, mean ± SD, read-out: AUC0-t): 2.74 ± 1.08 µM·h
Cmax [1, 19]: 365 nM
AUC(0-t) ([1]; human, plasma, oral, 50 mg, 50 mg QD, steady state, geometric mean, read-out: AUC0-t): 1.37 µM·h
AUC [1, 19]: 1.56 µM·h
half-life ([1]; human, plasma, oral, 50 mg, 50 mg QD, steady state, geometric mean, read-out: t1/2 (converted)): 2.4 h
Cmax [1, 20]: 1190 nM
AUC(0-t) ([1]; human, plasma, oral, 100 mg, 100 mg BID, steady state, geometric mean, read-out: AUC0-t): 4.97 µM·h
AUC [1, 20]: 5.38 µM·h
half-life ([1]; human, plasma, oral, 100 mg, 100 mg BID, steady state, geometric mean, read-out: t1/2 (converted)): 3.2 h
AUC(0-t) ([1]; human, plasma, oral, 100 mg, 100 mg BID, steady state, mean ± SD, read-out: AUC0-t): 5.32 ± 2.16 µM·h
Cmax [1, 21]: 2440 nM
AUC(0-t) ([1]; human, plasma, oral, 300 mg, 300 mg BID, steady state, geometric mean, read-out: AUC0-t): 8.88 µM·h
AUC [1, 21]: 9.75 µM·h
AUC(0-t) ([1]; human, plasma, oral, 300 mg, 300 mg BID, steady state, mean ± SD, read-out: AUC0-t): 8.92 ± 0.841 µM·h
Cmax [1, 22]: 3880 nM
AUC(0-t) ([1]; human, plasma, oral, 400 mg, 400 mg BID, steady state, geometric mean, read-out: AUC0-t): 15 µM·h
AUC [1, 22]: 17.6 µM·h
half-life ([1]; human, plasma, oral, 400 mg, 400 mg BID, steady state, geometric mean, read-out: t1/2 (converted)): 2.6 h
AUC(0-t) ([1]; human, plasma, oral, 400 mg, 400 mg BID, steady state, mean ± SD, read-out: AUC0-t): 16.7 ± 6.79 µM·h
Cmax [1, 23]: 4480 nM
AUC(0-t) ([1]; human, plasma, oral, 500 mg, 500 mg BID, steady state, geometric mean, read-out: AUC0-t): 17.3 µM·h
AUC [1, 23]: 19.7 µM·h
half-life ([1]; human, plasma, oral, 500 mg, 500 mg BID, steady state, geometric mean, read-out: t1/2 (converted)): 2.4 h
AUC(0-t) ([1]; human, plasma, oral, 500 mg, 500 mg BID, steady state, mean ± SD, read-out: AUC0-t): 18.2 ± 6.46 µM·h
Cmax ([1]; human, plasma, oral, 600 mg, 600 mg BID, Fed (high-fat meal), geometric mean): 4030 nM
AUC(0-t) ([1]; human, plasma, oral, 600 mg, 600 mg BID, Fed (high-fat meal), geometric mean, read-out: AUC0-12 h): 25.8 µM·h
Cmax ([1]; human, plasma, oral, 600 mg, 600 mg BID, Fed (high-fat meal), mean ± SD): 4530 ± 2520 nM
AUC(0-t) ([1]; human, plasma, oral, 600 mg, 600 mg BID, Fed (high-fat meal), mean ± SD, read-out: AUC0-12 h): 29.5 ± 18.2 µM·h
tmax ([1]; human, plasma, oral, 600 mg, 600 mg BID, Fed (high-fat meal), median, read-out: Tmax): 6 h
Cmax ([1]; human, plasma, oral, 600 mg, 600 mg BID, food effect cohort, Fasted, geometric mean): 4520 nM
AUC(0-t) ([1]; human, plasma, oral, 600 mg, 600 mg BID, food effect cohort, Fasted, geometric mean, read-out: AUC0-12 h): 21.6 µM·h
Cmax ([1]; human, plasma, oral, 600 mg, 600 mg BID, food effect cohort, Fasted, mean ± SD): 4820 ± 2160 nM
AUC(0-t) ([1]; human, plasma, oral, 600 mg, 600 mg BID, food effect cohort, Fasted, mean ± SD, read-out: AUC0-12 h): 22.9 ± 9.99 µM·h
Cmax [1, 24]: 4520 nM
AUC(0-t) ([1]; human, plasma, oral, 600 mg, 600 mg BID, steady state, geometric mean, read-out: AUC0-t): 18.3 µM·h
AUC [1, 24]: 21.6 µM·h
half-life ([1]; human, plasma, oral, 600 mg, 600 mg BID, steady state, geometric mean, read-out: t1/2 (converted)): 3.2 h
AUC(0-t) ([1]; human, plasma, oral, 600 mg, 600 mg BID, steady state, mean ± SD, read-out: AUC0-t): 19.5 ± 8.4 µM·h
tmax ([1]; human, plasma, oral, 600 mg, 600 mg BID, steady state, read-out: prolongation of Tmax by a high-fat meal): 4 h
Cmax [1, 25]: 6000 nM
AUC(0-t) ([1]; human, plasma, oral, 700 mg, 700 mg BID, steady state, geometric mean, read-out: AUC0-t): 29.6 µM·h
AUC [1, 25]: 33.9 µM·h
half-life ([1]; human, plasma, oral, 700 mg, 700 mg BID, steady state, geometric mean, read-out: t1/2 (converted)): 2.9 h
AUC(0-t) ([1]; human, plasma, oral, 700 mg, 700 mg BID, steady state, mean ± SD, read-out: AUC0-t): 30.8 ± 10.5 µM·h
half-life ([1]; human, plasma, oral, from accumulation ratio based on AUC, read-out: effective t1/2 (converted)): ~6 h
clearance ([1]; human, plasma, oral, read-out: mean systemic clearance CL (converted)): 417 mL/min
bioavailability ([1]; plasma, oral, human, estimated, CL/CLoral, read-out: mean absolute bioavailability (F)): 45%
systemic accumulation ([1]; repeat 50 mg QD administration): no evidence of systemic accumulation
day on which steady-state of PK was observed ([1]; repeat BID dosing, judged by trough plasma concentrations): ≤ 8 days
effective half-life ([1]; suggested by accumulation of Cmax and AUC0-τ, BID dosing): 4 to 6 h
unbound fraction in plasma [2]: 3.1%
